# Results reported in US8637028B2, “Adjuvant incorporation in immunonanotherapeutics” (President and Fellows of Harvard College, priority 2008, dated 2014).
# Experiments:
# [1] = Anti-nicotine IgG in immunized mice (ELISA); format: in vivo, mouse; conditions: FIGS. 36 and 37
# OT-II CD4 T cells = assay: In vivo CD4 T cell activation (CFSE-labeled OT-II cells); parameters: species or system mouse; conditions: with CpG adjuvant, three days after footpad immunization
# Experimental: Subsequently, immunization experiments were performed by injecting one footpad with free OVA or with nanoparticles composed of either PLA or PLGA that encapsulated an equivalent amount of OVA as a model antigen. All antigenic mixtures also contained CpG (a TLR9 agonist) as an adjuvant. The animals were injected, sacrificed three days after immunization, and OT-II T cell activation was assessed by flow cytometry in single-cell suspensions from different tissues.
# By contrast, activated T cells divide and in the process split the fluorescent dye evenly between the two daughter cells resulting in an incremental decrease in fluorescence intensity upon each successive division. Thus, the greater the left shift in CFSE, fluorescence the stronger T cells were activated.
Molecule,production of nicotine antibodies [1],"local T cell proliferation in distal lymphoid tissues (brachial lymph node, spleen) (OT-II CD4 T cells)"
"CN1CCCC1c1cccnc1 (centres unmarked) [free nicotine, nicotine]",does not elicit the production of nicotine antibodies,–
free OVA: free chicken ovalbumin model antigen,–,only undivided cells or cells with very low CFSE content
